≈ marks a conversion by molar mass, not a printed value. Calls of active or inactive are those of the source. The rule behind the calls is not given here. Bridge positions count the residues as written; N and C are the ends. Square brackets hold non-standard residues; d marks the D form. Peptide text beside a SMILES is read from it. * marks the point of attachment. Heptanoyl(6-Me) = CC(C)CCCCC(=O)*; Dab = NCC[C@H](N)C(=O)O; Dap = NC[C@H](N)C(=O)O
Legend:
[1] = system: Lipopolysaccharide (LPS); experiment: Binding affinity to Escherichia coli LPS assessed as dissociation constant by SPR analysis
[2] = system: Pseudomonas aeruginosa; experiment: Antibacterial activity against carbapenem-resistant Pseudomonas aeruginosa clinical isolate ets33 assessed as inhibition of bacterial growth incubated for 24 hrs by CLSI protocol based broth microdilution method; assay type: functional
[3] = system: Klebsiella pneumoniae; experiment: Antibacterial activity against carbapenem-resistant Klebsiella pneumoniae clinical isolate ets80 assessed as inhibition of bacterial growth incubated for 24 hrs by CLSI protocol based broth microdilution method; assay type: functional
[4] = system: Pseudomonas aeruginosa; experiment: Antibacterial activity against carbapenem-resistant Pseudomonas aeruginosa clinical isolate 19-3 assessed as inhibition of bacterial growth incubated for 16 to 20 hrs by CLSI protocol based broth microdilution method; assay type: functional; conditions: time 16-20 hrs
[5] = system: Pseudomonas aeruginosa; experiment: Antibacterial activity against Pseudomonas aeruginosa ATCC 27853 assessed as bacterial concentration at 4 to 8 times of MIC measured after 1 hrs by time-kill kinetics assay; assay type: functional, organism-based
[6] = system: Pseudomonas aeruginosa; experiment: Antibacterial activity against carbapenem-resistant Pseudomonas aeruginosa clinical isolate ets5 assessed as inhibition of bacterial growth incubated for 24 hrs by CLSI protocol based broth microdilution method; assay type: functional
[7] = system: Escherichia coli; experiment: Antibacterial activity against carbapenem-resistant Escherichia coli clinical isolate 231016w014 assessed as inhibition of bacterial growth incubated for 24 hrs by CLSI protocol based broth microdilution method; assay type: functional
[8] = system: Acinetobacter baumannii; experiment: Antibacterial activity against carbapenem-resistant Acinetobacter baumannii clinical isolate ets104 assessed as inhibition of bacterial growth incubated for 24 hrs by CLSI protocol based broth microdilution method; assay type: functional
[9] = system: Klebsiella pneumoniae; experiment: Antibacterial activity against carbapenem-resistant Klebsiella pneumoniae clinical isolate ets45 assessed as inhibition of bacterial growth incubated for 24 hrs by CLSI protocol based broth microdilution method; assay type: functional
[10] = AUC (0 to infinity) in male Sprague-Dawley rat at 3 mg/kg, iv measured after 24 hrs by LC-MS/MS analysis; assay type: ADME, organism-based; conditions: in vivo
[11] = Half-life in male Sprague-Dawley rat at 3 mg/kg, iv measured after 24 hrs by LC-MS/MS analysis; assay type: ADME, organism-based; conditions: in vivo
[12] = system: Klebsiella pneumoniae; experiment: Antibacterial activity against carbapenem-resistant Klebsiella pneumoniae clinical isolate ets74 assessed as inhibition of bacterial growth incubated for 24 hrs by CLSI protocol based broth microdilution method; assay type: functional
[13] = system: Klebsiella pneumoniae; experiment: Antibacterial activity against carbapenem-resistant Klebsiella pneumoniae clinical isolate ets40 assessed as inhibition of bacterial growth incubated for 24 hrs by CLSI protocol based broth microdilution method; assay type: functional
[14] = system: Escherichia coli; experiment: Antibacterial activity against Escherichia coli ATCC BAA-2523 infected in ICR mouse model administered intravenously with compound at 1 and 6 hrs post-infection and measured after 7 days; assay type: functional; conditions: ATCC BAA-2523, 168 h, route iv, time 7 day
[15] = system: Pseudomonas aeruginosa; experiment: Potentiation of rifampicin induced antibacterial activity against Pseudomonas aeruginosa ATCC 27853 assessed as rifampicin MIC at 0.125 microg/ml incubated 24 hrs by cation adjusted Mueller-Hinton broth based method; assay type: functional; conditions: dose 0.125 µg/ml
[16] = system: Klebsiella pneumoniae; experiment: Antibacterial activity against carbapenem-resistant Klebsiella pneumoniae clinical isolate KPN+19-15 assessed as inhibition of bacterial growth incubated for 16 to 20 hrs by CLSI protocol based broth microdilution method; assay type: functional; conditions: time 16-20 hrs
[17] = system: Acinetobacter baumannii; experiment: Antibacterial activity against carbapenem-resistant Acinetobacter baumannii clinical isolate ets30 assessed as inhibition of bacterial growth incubated for 24 hrs by CLSI protocol based broth microdilution method; assay type: functional
[18] = system: Klebsiella pneumoniae; experiment: Antibacterial activity against carbapenem-resistant Klebsiella pneumoniae clinical isolate ets78 assessed as inhibition of bacterial growth incubated for 24 hrs by CLSI protocol based broth microdilution method; assay type: functional
[19] = system: Pseudomonas aeruginosa; experiment: Antibacterial activity against carbapenem-resistant Pseudomonas aeruginosa clinical isolate ets55 assessed as inhibition of bacterial growth incubated for 24 hrs by CLSI protocol based broth microdilution method; assay type: functional
[20] = system: Pseudomonas aeruginosa; experiment: Antibacterial activity against Pseudomonas aeruginosa ATCC 27853 infected in ICR mouse model administered intravenously with compound at 1 and 6 hrs post-infection and measured after 7 days; assay type: functional; conditions: ATCC 27853, 168 h, route iv, time 7 day
[21] = system: Klebsiella pneumoniae; experiment: Antibacterial activity against carbapenem-resistant Klebsiella pneumoniae clinical isolate ets26 assessed as inhibition of bacterial growth incubated for 24 hrs by CLSI protocol based broth microdilution method; assay type: functional
[22] = system: Acinetobacter baumannii; experiment: Antibacterial activity against carbapenem-resistant Acinetobacter baumannii clinical isolate ets123 assessed as inhibition of bacterial growth incubated for 24 hrs by CLSI protocol based broth microdilution method; assay type: functional
[23] = system: Pseudomonas aeruginosa; experiment: Potentiation of rifampicin induced antibacterial activity against Pseudomonas aeruginosa ATCC 27853 assessed as rifampicin MIC at 0.004 microg/ml incubated 24 hrs by cation adjusted Mueller-Hinton broth based method; assay type: functional; conditions: dose 0.004 µg/ml
[24] = system: Acinetobacter baumannii; experiment: Antibacterial activity against carbapenem-resistant Acinetobacter baumannii NCTC13304 infected in ICR mouse model administered intravenously with compound at 1 and 6 hrs post-infection and measured after 7 days; assay type: functional; conditions: NCTC13304, 168 h, route iv, time 7 day
[25] = Renal cytotoxicity against HK-2 cells incubated for 72 hrs by CCK8 assay; assay type: toxicity, cell-based; conditions: human
[26] = system: Pseudomonas aeruginosa; experiment: Antibacterial activity against Pseudomonas aeruginosa ATCC 27853 assessed as inhibition of bacterial growth incubated for 16 to 20 hrs by CLSI protocol based broth microdilution method; assay type: functional; conditions: time 16-20 hrs
[27] = system: Pseudomonas aeruginosa; experiment: Antibacterial activity against Pseudomonas aeruginosa ATCC 27853 assessed as decrease in bacterial concentration at 0.5 to 2 times of MIC measured after 2 hrs by time-kill kinetics assay; assay type: functional, organism-based
[28] = system: Klebsiella pneumoniae; experiment: Antibacterial activity against carbapenem-resistant Klebsiella pneumoniae clinical isolate ets75 assessed as inhibition of bacterial growth incubated for 24 hrs by CLSI protocol based broth microdilution method; assay type: functional
[29] = system: Pseudomonas aeruginosa; experiment: Potentiation of rifampicin induced antibacterial activity against Pseudomonas aeruginosa ATCC 27853 assessed as rifampicin MIC at 0.008 microg/ml incubated 24 hrs by cation adjusted Mueller-Hinton broth based method; assay type: functional; conditions: dose 0.008 µg/ml
[30] = system: Pseudomonas aeruginosa; experiment: Potentiation of rifampicin induced antibacterial activity against Pseudomonas aeruginosa ATCC 27853 assessed as rifampicin MIC at 0.03 microg/ml incubated 24 hrs by cation adjusted Mueller-Hinton broth based method; assay type: functional; conditions: dose 0.03 µg/ml
[31] = system: Cell membrane; experiment: Disruption of cell membrane integrity in Pseudomonas aeruginosa ATCC 27853 assessed as morphological changes at 16 microg/ml incubated for 2 hrs by scanning electron microscopic analysis; conditions: dose 16.0 µg/ml
[32] = system: Acinetobacter baumannii; experiment: Antibacterial activity against carbapenem-sensitive Acinetobacter baumannii clinical isolate 19-1 assessed as inhibition of bacterial growth incubated for 16 to 20 hrs by CLSI protocol based broth microdilution method; assay type: functional; conditions: time 16-20 hrs
[33] = molecular target: Lipopolysaccharide (LPS); experiment: Binding affinity to Pseudomonas aeruginosa LPS assessed as dissociation constant by SPR analysis
[34] = Volume of distribution in male Sprague-Dawley rat at 3 mg/kg, iv measured after 24 hrs by LC-MS/MS analysis; assay type: ADME, organism-based; conditions: in vivo
[35] = MRT in male Sprague-Dawley rat at 3 mg/kg, iv measured after 24 hrs by LC-MS/MS analysis; assay type: ADME, organism-based; conditions: in vivo
[36] = system: Escherichia coli; experiment: Antibacterial activity against carbapenem-resistant Escherichia coli ATCC BAA-2340 assessed as inhibition of bacterial growth incubated for 16 to 20 hrs by CLSI protocol based broth microdilution method; assay type: functional; conditions: time 16-20 hrs

**Q.** With CC(C)CCCCC(=O)N[C@@H](CCN)C(=O)N[C@H](C(=O)N[C@@H](CN)C(=O)N[C@H]1CCNC(=O)[C@H]([C@@H](C)O)NC(=O)[C@H](CCN)NC(=O)[C@H](CCN)NC(=O)[C@H]([C@@H](C)O)NC(=O)[C@@H](Cc2ccccc2)NC(=O)[C@H](CCN)NC1=O)[C@@H](C)O ({Heptanoyl(6-Me)}-[Dab]T[Dap][Dab][Dab][dF]T[Dab][Dab]T; lactam 4-C) as the compound, how does the Kd [1] read?
**A.** Its Kd is 0.03 µM.

**Q.** And the MIC [2]?
**A.** The MIC was 0.5 µg/mL (≈ 0.43 µM).

**Q.** And the MIC [3]?
**A.** The MIC was 0.25 µg/mL (≈ 0.215 µM).

**Q.** And the MIC [4]?
**A.** The MIC was 0.125 µg/mL (≈ 0.107 µM).

**Q.** And the Activity [5]?
**A.** The Activity was “Below limit of detection”.

**Q.** And the MIC [6]?
**A.** Its MIC is 1 µg/mL (≈ 0.86 µM).

**Q.** And the MIC [7]?
**A.** The MIC was under 0.06 µg/mL.

**Q.** What about the MIC [8] of the same compound?
**A.** Its MIC is 0.06 µg/mL (≈ 0.0516 µM).

**Q.** What about the MIC [9] of the same compound?
**A.** The MIC was 0.25 µg/mL (≈ 0.215 µM).

**Q.** What about the AUC(0-inf) [10] of the same compound?
**A.** Its AUC(0-inf) is 8280 ng·h/mL.

**Q.** And the half-life [11]?
**A.** Its half-life is 2.22 h.

**Q.** What about the MIC [12] of the same compound?
**A.** The MIC was 0.5 µg/mL (≈ 0.43 µM).

**Q.** And the MIC [13]?
**A.** The MIC was 0.25 µg/mL (≈ 0.215 µM).

**Q.** What about the ED50 [14] of the same compound?
**A.** The ED50 was 1.86 mg/kg.

**Q.** And the MIC [15]?
**A.** Its MIC is at most 0.06 µg/mL.

**Q.** And the MIC [16]?
**A.** The MIC was at most 0.03 µg/mL.

**Q.** What about the MIC [17] of the same compound?
**A.** Its MIC is under 0.06 µg/mL.

**Q.** What about the MIC [18] of the same compound?
**A.** The MIC was 0.5 µg/mL (≈ 0.43 µM).

**Q.** What about the MIC [19] of the same compound?
**A.** Its MIC is 1 µg/mL (≈ 0.86 µM).

**Q.** And the ED50 [20]?
**A.** The ED50 was 6.38 mg/kg.

**Q.** What about the MIC [21] of the same compound?
**A.** The MIC was 0.5 µg/mL (≈ 0.43 µM).

**Q.** What about the MIC [22] of the same compound?
**A.** The MIC was 0.5 µg/mL (≈ 0.43 µM).

**Q.** And the MIC [23]?
**A.** The MIC was 32 µg/mL.

**Q.** And the ED50 [24]?
**A.** The ED50 was 0.83 mg/kg.

**Q.** What about the IC50 at 72 h [25] of the same compound?
**A.** Its IC50 at 72 h is over 500 µg/mL.

**Q.** And the MIC [26]?
**A.** The MIC was 0.125 µg/mL (≈ 0.107 µM).

**Q.** What about the Activity [27] of the same compound?
**A.** Its Activity is “inactive”.

**Q.** What about the MIC [28] of the same compound?
**A.** Its MIC is 0.5 µg/mL (≈ 0.43 µM).

**Q.** What about the MIC [29] of the same compound?
**A.** Its MIC is 32 µg/mL.

**Q.** What about the MIC [30] of the same compound?
**A.** Its MIC is 16 µg/mL.

**Q.** And the Activity [31]?
**A.** The Activity was “Active”.

**Q.** What about the MIC [32] of the same compound?
**A.** Its MIC is at most 0.03 µg/mL.

**Q.** What about the Kd [33] of the same compound?
**A.** The Kd was 11.5 µM.

**Q.** What about the Vd [34] of the same compound?
**A.** Its Vd is 0.78 L/kg.

**Q.** And the MRT [35]?
**A.** The MRT was 1.17 h.

**Q.** And the MIC [36]?
**A.** Its MIC is at most 0.03 µg/mL.

Source: ChEMBL document CHEMBL6078630, “Design, synthesis, and bioactivity investigation of novel cyclic lipopeptide antibiotics targeting top-priority multidrug-resistant gram-negative bacteria” (Eur J Med Chem, 2024)
